Where a name gives a salt, the structure may show the parent alone. Starred links: 1 amine or outer side, 2 acyl side, 3 side chain; linkers in the order of their positions; H or OH if unused. Positions of bridges follow the written chain, without caps; N, C: chain ends. Non-standard residues stand in square brackets, D forms with d. Residues, ends and D or L forms follow the SMILES beside them. Chains are numbered I, II in the order given. No end group written: not given here. Actinocin(9to1) = Cc1c2oc3c(C)ccc(C(=O)[*:1])c3nc-2c(C(=O)[*:2])c(N)c1=O; NMeV = CN[C@H](C(=O)O)C(C)C; Sar = CNCC(=O)O
Experiments:
[1] = test system: striatal, cortical, and hippocampal neurons; assay: SP-induced cell death in primary striatal, cortical and hippocampal neurons, trypan blue viability and staining; type: cell-based, rat; settings: for effect on neuronal cell death in response to SP: added 30 min before SP: 10 μM PD 98059, 50 nM Calphostin C, 10 μM Rp-8-Br-cAMPS; for effect on SP-induced neuronal cell death: 5 nM L-732,138, 1 nM L-733,060; for effect on SP-induced neuronal cell death / effect on SP-induced cell death: added at the same time as SP; for effect on SP-induced cell death: 1 μg/ml
Description: Rat neuronal primary cell cultures were also used to assay for inducers and inhibitors of paraptosis. Briefly, primary striatal, cortical and hippocampal cultures were prepared from 17-day-old Sprague-Dawley rat embryos (B&K). The tissue was dissected, minced and trypsinized for five minutes using 0.25% trypsin (Cell Grow). After the addition of 10% horse serum (Life Technologies) to inhibit the trypsin, the cell suspension was triturated 15–20 times with a 10 ml syringe and centrifuged for five minutes at 800×g. The pellet was resuspended in MEM-PAK (UCSF Cell Culture facility), supplemented with 2.02 gm glucose, 2 mM GLUTAMAX™ (Life Technologies) and penicillin/streptomycin (100 U/ml). The suspension was filtered through a […] cell strainer and the final culture medium contained 5% horse serum. Subsequently, 3-4×10^5 cells per Cm^2 were seeded onto either poly-D-lysine precoated 8-well chamber slides (Becton-Dickson Labware) or 96 well plates precoated with […] of poly-D-lysine (Sigma) in water. After 30 minutes of incubation time, unattached cells were removed together with the medium and replaced with glucose enriched MEM-PAK plus 5% horse serum. The cultures were then incubated at 37° C. in 95% air 5% carbon dioxide with 95% humidity. Cultures were used for experiments between day 1 and day 7 when glial contamination was at a minimum.
Primary neuronal cells were prepared as described in Example I. SP (SIGMA) at a concentration of 0.1 nM–100 μM was added 24–48 hrs after seeding, in the presence of 2.5% horse serum. When the cultures were maintained for more than 5 days, 10 μM cytosine arabinoside was added for 24 hours, beginning 3 days after plating the cells. Viability was quantified by trypan blue staining of the total cell population.
The following compounds were added at the same time as SP in the indicated experiments: 5 nM L-732, 138; 1 nM L-733,060; 1 μg/ml Actinomycin D or 1 μg/ml Cycloheximide. All of these compounds were obtained from SIGMA. The caspase inhibitors zVAD.fmk and BAF were added at 50 μM and obtained from Enzyme System Products, Livermore, Calif.
Either neuronal primary cultures or human embryonic kidney 293T cells were fixed with 4% paraformaldehyde and stained with 0.5 μg/ml DAPI (Molecular Probes) or Hoechst(SIGMA). […]
The protein kinase inhibitors were added 30 min before SP exposure at the following concentrations: 10 μM Rp-8-Br-cAMPS (adenosin 3′,5′-cyclic monophosphorothioate, 8-bromo-, Rp-isomer, sodium salt) which is a PKA inhibitor; 50 nM Calphostin C, which is a PKC inhibitor; 10 μM PD 98059 which is a MAPKK (MEK) inhibitor. These compounds were obtained from Calbiochem. Viability was quantified by trypan blue staining of the total cell population.

[2] = test system: paraptosis induced by caspase 7, caspase 8 or caspase 9; assay: Inhibition of paraptosis induced by caspases; type: cell-based
Description: (§1) Test compounds were added to IGFIR-IC transfected 293T cells at the time of transfection.

[3] = test system: IGFIR-IC transfected 293T cells; assay: Inhibition of IGFIR-IC induced paraptosis in transfected 293T cells, LDH assay; type: cell-based, human; settings: added at the time of transfection
Description: Paraptosis was induced in 293T cells by expressing the intracellular domain of the insulin-like growth factor I receptor (IGFIR-IC) in these cells using transient transfection as described above.
as §1
The TRAF2 dominant negative mutant contains a deletion of the amino terminal 271 amino acids of the protein. The ratio of IGFIR-IC:AIP1 and IGFIR-IC:TRAF2DN was 1:3. […] Antisense oligonucleotide constructs for JNK1 or JNK2 (50–100 nM) were transfected into 293T cells one day before transfection with the IGFIR-IC construct. For all inhibition assays, cell viability was measured using the LDH assay.

293T cells = assay: Induction of paraptosis in 293T cells, LDH cell death assay; type: cell-based, human; settings: for induction of paraptosis when expressed: pcDNA3 construct transiently transfected into 293T cells
Description: Human embryonic kidney 293T cell line cells were used to assay for inducers and inhibitors of paraptosis. These cells were cultured in high glucose DMEM (Life Technologies) supplemented with 10% FBS (Sigma) and 1% penicillin/streptomycin (Life Technologies). The cultures were incubated at 37° C. in 95% air 5% carbon dioxide with 95% humidity.
Subsequently, compounds were added to 293T cells and/or rat neuronal primary cell culture cells in order to determine if the compounds could induce paraptosis. Cell death was assayed using the lactate dehydrogenase (LDH) assay, in which the relative amount of enzyme released from dying cells in the medium is measured by following the disappearance of nicotinamide adenine dinucleotide, reduced form (NADH) in the following reaction: pyruvate+NADH <−>NAD^++ lactate. Briefly, 50 μl of culture medium for either 293T cells or 100 μl of culture medium for neuronal primary culture were dispensed in a 96 well plate to which 100 μl of a solution consisting of 5 mg of NADH dissolved in 20 ml of PBS and 0.5 ml of 100 mM NaPyruvate. NADH disappearance was assessed by kinetic photmetric readings at a 340 nm wavelength at 19 minute intervals over a period of 2 hours and 30 minutes.
Constructs of pcDNA3 containing procaspase-7 or procaspase-8 were transiently transfected into 293T cells using Lipofect-Amine (GIBCO-BRL) according to the manufacturer's instructions. Briefly, 1×10^6 293T cells were seeded in 6 cm dishes, and transfected the next day using a ratio of DNA:Lipofect-Amine of 1 μg:5 μl. Transfection efficiency was 60–80% for 293T cells, as determined by X-gal staining after transfection of a β-galactosidase construct.

[4] = test system: caspases, calpains, proteasome; assay: Protease activation during SP-induced cell death, substrate hydrolysis in cytosolic extracts of NK1R-transfected 293T cells; type: biochemical, human; settings: added to cytosolic extract of NK1R-transfected 293T cells
Description: Preparation of cell-free extract for kinetic studies: 293T cells seeded at the density of 2 million cells per 10 cm dish were transfected with NK1R cDNA using Lipofectamine 2000 (Gibco) according the instructions provided by the manufacturer. After 24 hr 10 nM SP was added to half of the culture dishes. At 24 hr later the cells were washed with ice cold PBS and collected with a cell scraper. The cells pelleted at 700×g for 4 min were resuspended in cell lysis buffer at pH 7.4 containing 1 mM dithiothreitol at a ratio of 1:1 (v/v). After 30 min on ice the swelled cells were disrupted with 20 strokes using a 27 gauge needle and further spun at 16,000×g for 30 min. The pellet was discarded and the supernatant which represents the cytosolic fraction was aliquoted and stored at −80° C. or used in the kinetic studies. The protein concentration was determined using the Bradford assay (Pierce).
For kinetic studies, the proteolytic activities were followed fluorometrically by monitoring AFC or AMC release from 100 μM of the corresponding substrates (Enzyme Systems Products): Caspase-1 like, Ac-YVAD-AFC; caspase-2, Ac-VDVAD-AFC; caspases-3 like, Ac-DEVD-AFC; caspase-6, Ac-VEID-AFC; caspase-8, Ac-IETD-AFC; caspase-9, Ac-LEHD-AFC. Calpain activity was monitored with 100 μM Suc-LY-AFC (succinyl-Leu-Tyr-7-amino-4-methylcoumarin, Enzyme Systems Products) at 5 μM and 5 mM CaCl2. The chymotrypsin activity of the proteasome was followed with 100 μM Suc-LLVY-AFC (succinyl-Leu-Leu-Val-Tyr-7-amino-4-methylcoumarin, Enzyme Systems Products), and cathepsins were assayed using 20 μM Z-FR-AMC (Benzyloxycarbonyl-Phe-Arg-7-amino-4-methylcoumarin, Bachem). A 10 μl aliquot of extract in the presence or absence of SP was added to 90 μl of substrate at the appropriate concentration and pH. The reaction was continuously monitored during 30 min and 37° C. in a fluorescence microplate reader (Molecular Devices). The instrument was set at excitation and emission wavelengths of 405 and 510 for AFC releasing group, and 370 and 460 nm, for AMC releasing group, respectively. The steady-state hydrolysis rates were obtained from the linear part of the curves.

In the case of `Nc1ncnc2c1nc(Br)n2C1OC2COP(O)(=S)OC2C1O` (single isomer, unassigned) [Rp-8-Br-cAMPS, adenosin 3′,5′-cyclic monophosphorothioate, 8-bromo-, Rp-isomer, sodium salt], the “effect on neuronal cell death in response to SP” value [1] is reported as “no protective effect”.

With `c1cnc2c(c1)ccc1cccnc12` [1–10-phenantroline] the “inhibition of paraptosis induced by caspase 8” value [2] was “able to inhibit paraptosis”, the “inhibition of paraptosis induced by caspase 9” value [2] was “able to inhibit paraptosis” and the “concentration able to inhibit IGFIR-IC induced paraptosis” value [3] was 0.05 µM.

With `O=S(=O)(NCCNC/C=C/c1ccc(Br)cc1)c1cccc2cnccc12` [H89] the “concentration able to inhibit IGFIR-IC induced paraptosis” value [3] was 10 to 20 µM.

For `CC(=O)N[C@@H](Cc1c[nH]c2ccccc12)C(=O)OCc1cc(C(F)(F)F)cc(C(F)(F)F)c1` [L-732,138], the “effect on SP-induced neuronal cell death” value [1] was “inhibited SP-induced cell death”.

For `FC(F)(F)c1cc(CO[C@H]2CCCN[C@H]2c2ccccc2)cc(C(F)(F)F)c1` [L-733,060], the “effect on SP-induced neuronal cell death” value [1] was “inhibited SP-induced cell death”.

`Cc1c2oc3c(C)ccc(C(=O)N[C@@H]4C(=O)N[C@H](C(C)C)C(=O)N5CCC[C@H]5C(=O)N(C)CC(=O)N(C)[C@@H](C(C)C)C(=O)O[C@@H]4C)c3nc-2c(C(=O)N[C@@H]2C(=O)N[C@H](C(C)C)C(=O)N3CCC[C@H]3C(=O)N(C)CC(=O)N(C)[C@@H](C(C)C)C(=O)O[C@@H]2C)c(N)c1=O` [actinomycin D] (I: T[dV]P[Sar][NMeV] / II: T[dV]P[Sar][NMeV]; ester I:1-I:C, II:1-II:C; linker I:N-II:N via Actinocin(9to1)) was tested, and the “effect on SP-induced cell death” value [1] was “prevented”.

`C[C@@H]1C[C@@H]([C@H](O)CC2CC(=O)NC(=O)C2)C(=O)[C@@H](C)C1` [cyclohexamide] was tested, and the “effect on SP-induced cell death” value [1] was “prevented”.

For Calphostin C, the “effect on neuronal cell death in response to SP” value [1] was “no protective effect”.

In the case of “D form of SP: D isomer of substance P ([dR][dP][dK][dP][dQ][dQ][dF][dF]G[dL][dM]; ends and bridges not checked)”, the “effect of SP isomer on neuronal cell death” value ([1]; L or D isomer) is reported as “no effect on cell death”.

With Tumor Necrosis Factor-α the “concentration at which found to induce paraptosis” value (293T cells; 293T cells) was 1 to 10 ng/mL.

With “granzyme B: serine protease that activates procaspase-3” the “increase of DEVDase activity” value [4] was 7 fold.

In the case of “neurokinin A: NK1R agonist that does not exhibit mitochondrial toxicity (HKTDSFVGLM; ends and bridges not checked; UniProt P20366 98-107, looked up)”, the “induction of cell death by NK1R agonists” value ([1]; compared with SP) is reported as “able to induce cell death as well as SP”.

B1: procaspase-7: procaspase-7 expressed in 293T cells from a pcDNA3 construct (protein, UniProt P55210 2-303, looked up)
pro-form: ADDQGCIEEQGVEDSANEDSVDAKPDRSSFVPSLFSKKKKNVTMRSIKTTRDRVPTYQYNMNFEKLGKCIIINNKNFDKVTGMGVRNGTDKDAEALFKCFRSLGFDVIVYNDCSCAKMQDLLKKASEEDHTNAACFACILLSHGEENVIYGKDGVTPIKDLTAHFRGDRCKTLLEKPKLFFIQACRGTELDDGIQADSGPINDTDANPRYKIPVEADFLFAYSTVPGYYSWRSPGRGSWFVQALCSILEEHGKDLEIMQILTRVNDRVARHFESQSDDPHFHEKKQIPCVVSMLTKELYFSQ
modifications: pro-form
notes: procaspase-7 expressed in 293T cells from a pcDNA3 construct
With B1 the “induction of paraptosis when expressed” value (293T cells) was “able to induce paraptosis”.

B2: procaspase-8: procaspase-8 expressed in 293T cells from a pcDNA3 construct (protein, UniProt Q14790 1-479, looked up)
pro-form: MDFSRNLYDIGEQLDSEDLASLKFLSLDYIPQRKQEPIKDALMLFQRLQEKRMLEESNLSFLKELLFRINRLDLLITYLNTRKEEMERELQTPGRAQISAYRVMLYQISEEVSRSELRSFKFLLQEEISKCKLDDDMNLLDIFIEMEKRVILGEGKLDILKRVCAQINKSLLKIINDYEEFSKERSSSLEGSPDEFSNGEELCGVMTISDSPREQDSESQTLDKVYQMKSKPRGYCLIINNHNFAKAREKVPKLHSIRDRNGTHLDAGALTTTFEELHFEIKPHDDCTVEQIYEILKIYQLMDHSNMDCFICCILSHGDKGIIYGTDGQEAPIYELTSQFTGLKCPSLAGKPKVFFIQACQGDNYQKGIPVETDSEEQPYLEMDLSSPQTRYIPDEADFLLGMATVNNCVSYRNPAEGTWYIQSLCQSLRERCPRGDDILTILTEVNYEVSNKDDKKNMGKQMPQPTFTLRKKLVFPSD
modifications: pro-form
notes: procaspase-8 expressed in 293T cells from a pcDNA3 construct
In the case of B2, the “induction of paraptosis when expressed” value (293T cells) is reported as “able to induce paraptosis”.

Source: patent publication US6994981B2, “Modulators of paraptosis and related methods” (The Buck Institute, priority 2002, dated 2006)
